For data set [1], the system named is BChE. Further details: method as in PMID 23722618. To be noted: cited from earlier work.
In data set [2] the target is T1, AChE (Homo sapiens, UniProt P22303).
T1 construct: purchased BioLegend (via Biocom Africa (Pty) Ltd.)
Briefly: biochemical. To be noted: mean ± SD of three independent experiments. As to the method: (§1) The melting point values of the test compounds were recorded on a Thermocouple digital melting point apparatus (Mettler Toledo LLC, Columbus, OH, USA). The infrared (IR) spectra were recorded using the thin-film method on a Bruker VERTEX 70 FT-IR Spectrometer (Bruker Optics, Billerica, MA, USA) equipped with an ATR (diamond attenuated total reflectance) accessory. Merck kieselgel 60 (0.063–0.200 mm) (Merck KGaA, Frankfurt, Germany) was used as a stationary phase for column chromatography. The ^1H-NMR and ^13C-NMR spectra of the prepared compounds were obtained as deuterated dimethyl sulfoxide ((CD3)2SO) solutions using Agilent 500 MHz NMR spectrometer (Agilent Technologies, Oxford, UK) operating at 500 MHz and 125 MHz for ^1H and ^13C, respectively. The chemical shifts are quoted relative to tetramethylsilane (TMS) used as an internal reference standard (δ = 0.00 ppm) or a residual protonated solvent. The high-resolution mass spectra were recorded at an ionization potential of 70 eV using Micromass Autospec-TOF (double focusing high resolution) instrument (Waters Corp., Milford, MA, USA). The synthesis and analytical data for 2-amino-5-iodobenzamide (1) have been reported in our previous study. Recombinant human AChE (BioLegend) and BChE (Cloud-Clone Corp.) were purchased via Biocom Africa (Pty) Ltd. (Centurion, Pretoria, South Africa).
(§2) AChE and BChE were used to determine cholinesterase activities spectrophotometrically using […] as substrates, respectively, following a modification of the Ellman’s method, as described in our previous study, and the reactions were performed in triplicate at 37 °C in a 96-well plate. […] A multi-channel pipette was used for the addition of reagents to the wells.
To each well of a 96-well plate, 8.0 μL solution of the test compound, 2.0 μL of AChE (0.04 mg/mL), and 70 μL of Tris buffer (C4H11NO3, 50 mM, pH 7.7) were added sequentially. The assay mixture was pre-incubated for 30 min at room temperature, which was followed by the addition of 10 μL of 5,5′-dithiobis-(2-nitrobenzoic acid) (DTNB, 3 mM in Tris buffer, 50 mM, pH 7.7) and 10 μL of […] (AChI, 5 mM in tris buffer, 50 mM, pH 7.7) to each well to initiate the reaction. […] The average values obtained from the absorbance readings were used to determine the IC50 and standard deviation values using the Graph Pad Prism (version 5.0, GraphPad software Inc., San Diego, CA, USA).

The target in data set [3] is T2, BChE (Homo sapiens, UniProt P06276).
T2 construct: purchased Cloud-Clone Corp. (via Biocom Africa (Pty) Ltd.)
The data set is described as follows: biochemical. The conditions noted are these: mean ± SD of three independent experiments. As to the method: as §1, §2
A total of 8.0 μL of the test compound and 2.0 μL of BChE (0.02 mg/mL) was added to each of the designated wells of the 96-well plate, and the mixtures were incubated at room temperature for 30 min. Tris buffer (70 μL) was added to each well containing the reaction mixture and incubation was continued for a further 10 min at this temperature, which was followed by the addition of 10 μL solution of 5,5′-dithiobis-(2-nitrobenzoic acid) (DTNB) (3 mM in Tris buffer, 50 mM, pH 7.7) and butyrylcholine iodide (5 mM in Tris buffer, 50 mM, pH 7.7) to each well to initiate the reaction. […] The IC50 and standard deviation values using the Graph Pad Prism.

Data set [4] in a line: Nitric oxide radical scavenging assay (Griess reaction). To be noted: NO radical scavenging. The procedure:
Nitric oxide was generated from sodium nitroprusside and measured by Griess’ reaction following the literature method. The experiment was done in triplicate with ascorbic acid (vitamin C) used as a positive control for the assay. In total, 50 μL of each of the test compounds and the positive control at various concentrations (0.1, 0.5, 1.0, 5.0, and 10.0 μM in methanol) were added to each designated well of the 96 well plate. A total of 50 μL of sodium nitroprusside (10 mM) prepared in saline phosphate buffer (pH = 7.4) was then added to each well and the reaction mixture incubated at room temperature for 3 h. Afterward, 300 μL of the Griess reagent (a mixture of 0.2% N-(1-naphthyl)ethylenediamine dihydrochloride and 2% sulfanilamide in […]) was added to each well and absorbance was read at 546 nm using a Varioskan flash microplate spectrophotometer reader.
On the technique in general: Nitrite, measured by Griess reagent, commonly stands in for NO production.

The target in data set [5] is T3, β-secretase (Homo sapiens, UniProt P56817).
T3 construct: purchased Thermo Fisher Scientific Corporation; host or cells: baculovirus-expressed
The data set is described as follows: β-Secretase (BACE-1) inhibition assay. The class given is biochemical. The conditions noted are these: mean ± SD of three independent experiments. As to the method:
The β-secretase inhibitory activities of the test compounds were assayed in triplicates in 96-well plates using a recombinant baculovirus-expressed β-secretase and a specific substrate (Rh-[…]-Quencher), according to the manufacturer’s (Thermo Fisher Scientific Corporation, Johannesburg, Gauteng, South Africa) instructions, as described in our previous study. […] To each well, 2.0 μL human recombinant β-secretase (1.0 U/mL) was added to start the reaction and the reaction mixture was incubated for 60 min at room temperature. […] The IC50 and standard deviation values of both the test compounds and reference standard were calculated using the Graph Pad Prism.

The nature of data set [6]: DPPH radical scavenging assay. The conditions noted are these: read-out: IC50 (SD) DPPH. As to the method:
The antioxidant activities of the test compounds against ascorbic acid (Sigma Aldrich, Saint Louis, MO, USA) as a positive control were evaluated using a 2,2-diphenyl-1-picrylhydrazyl (DPPH) radical scavenging assay developed by Zhu et al., as described in our previous study. Duplicate solutions (20 μL) of the test compounds and ascorbic acid in DMSO (final concentrations: 5, 10, 25, 50, and 100 μM) were added into each designated well of a 96-well plate. A solution of DPPH (0.20 mM) (20 μL) in methanol was added to each well, and the 96-well plate was wrapped with aluminium foil and incubated in the dark for 45 min. Five absorbance readings were recorded at 512 nm using a Varioskan flash microplate spectrophotometer reader. The average values obtained from the absorbance readings were used to determine the IC50 and standard deviation values.
In general terms: DPPH is a stable violet radical that fades when it is reduced.

The nature of data set [7]: Cytotoxicity (MTT assay) on Vero cells. As to the method:
(§3) The cytotoxicity activity of the compounds was evaluated using the 3-(4,5-dimethylthiazol-2-yl)-2,5-diphenyltetrazolium bromide (MTT) assay following a modification of a method by Mosmann. Normal monkey kidney cells (Vero cells) and adeno-carcinomic human epithelial cells (A549 cells) were maintained in Dulbecco’s modified Eagle’s medium (DMEM, Gibco) supplemented with 10% fetal bovine serum (FBS) and 1% penicillin/streptomycin in culture flasks and incubated at 37 °C in 5% CO2. […] Cells were seeded at 1 × 10^5 cells/well and incubated overnight to allow cell attachment. After 24 h, treatments were administered with different concentrations (0, 2.5, 5, 10, 25, 50, and 100 μM) of the compounds and doxorubicin (positive control). After 24 h of incubation, 20 μL of the MTT solution (5 mg/mL) was added in all the wells, which was followed by 4 h of incubation.

Data set [8] relates to Vero cells. Briefly: LPS-induced ROS production in Vero cells (H2DCF-DA). It is filed as cell-based, monkey. The conditions noted are these: 10 μM compound, LPS 1 μg/mL, 24 h (Figure 9a). As to the method:
(§4) Mitochondrial ROS levels in Vero and A549 cell lines was measured using the 2′,7′-dichlorofluorescin diacetate (H2DCF-DA) (Sigma-Aldrich, St. Louis, MO, USA, Merck, Darmstadt, Germany), fluorescent probe. Cells (1 × 10^5) were seeded in 96 well plates and incubated overnight at 37 °C in 5% CO2. A minimum non-toxic concentration (10 μM) of compounds (2a and 3b) was added separately as treatment and further incubated for an hour, after which LPS (1 μg/mL) was added to induce the production of ROS. After 24 h of incubation, the media was aspirated, cells were rinsed with PBS, and followed by the addition of H2DCF-DA (10 μM) for 30 min in the dark. The absorbance of the fluorescence was measured using a microplate reader (VarioSkan Flash, Thermo Fisher Scientific, Finland) at 485 and 535 nm values of excitation and emission, respectively. Data was processed and analysed using ANOVA, which was followed by Duncan’s multiple comparison test.

The test system of data set [9] is A549 cells. Briefly: LPS-induced ROS production in A549 cells (H2DCF-DA). It is filed as cell-based, human. To be noted: 10 μM compound, LPS 1 μg/mL, 24 h (Figure 9b). As to the method:
as §4

The nature of data set [10]: in vitro. To be noted: human. The procedure:
as §3

SMILES strings stand for the structures.

By IC50 is commonly meant the concentration that gives 50% inhibition.

T2 sequence (P06276 29-602): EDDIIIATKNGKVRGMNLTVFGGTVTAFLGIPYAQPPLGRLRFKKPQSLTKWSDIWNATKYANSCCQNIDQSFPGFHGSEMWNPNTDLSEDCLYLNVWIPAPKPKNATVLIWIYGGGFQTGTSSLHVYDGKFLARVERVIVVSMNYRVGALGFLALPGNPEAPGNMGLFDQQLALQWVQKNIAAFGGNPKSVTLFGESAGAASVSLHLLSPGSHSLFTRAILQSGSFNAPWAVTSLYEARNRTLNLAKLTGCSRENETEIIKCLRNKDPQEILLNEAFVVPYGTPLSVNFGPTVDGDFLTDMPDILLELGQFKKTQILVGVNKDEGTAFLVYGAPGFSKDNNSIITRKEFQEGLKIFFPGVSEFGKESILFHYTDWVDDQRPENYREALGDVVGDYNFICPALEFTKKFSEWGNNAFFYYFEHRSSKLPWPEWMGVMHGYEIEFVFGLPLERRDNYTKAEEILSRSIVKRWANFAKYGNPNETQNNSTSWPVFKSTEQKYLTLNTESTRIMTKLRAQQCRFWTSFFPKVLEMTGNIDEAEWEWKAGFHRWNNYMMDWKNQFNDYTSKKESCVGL
T1 sequence (P22303 32-614): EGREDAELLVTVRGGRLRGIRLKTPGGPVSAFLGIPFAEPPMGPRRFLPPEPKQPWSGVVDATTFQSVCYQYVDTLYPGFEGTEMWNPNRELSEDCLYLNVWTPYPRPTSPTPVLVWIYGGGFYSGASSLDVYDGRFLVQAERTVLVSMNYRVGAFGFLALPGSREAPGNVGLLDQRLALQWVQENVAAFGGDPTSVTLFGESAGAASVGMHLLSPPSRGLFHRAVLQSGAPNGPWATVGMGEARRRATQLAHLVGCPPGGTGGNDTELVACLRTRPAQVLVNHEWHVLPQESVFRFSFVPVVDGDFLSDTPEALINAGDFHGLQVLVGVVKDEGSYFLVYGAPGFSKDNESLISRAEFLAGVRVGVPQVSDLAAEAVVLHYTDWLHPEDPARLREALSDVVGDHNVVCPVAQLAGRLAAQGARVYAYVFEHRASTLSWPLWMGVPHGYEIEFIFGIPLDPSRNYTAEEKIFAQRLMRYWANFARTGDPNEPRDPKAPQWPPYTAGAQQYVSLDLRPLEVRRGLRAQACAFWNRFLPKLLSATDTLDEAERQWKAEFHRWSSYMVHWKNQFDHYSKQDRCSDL
T3 sequence (P56817 46-501): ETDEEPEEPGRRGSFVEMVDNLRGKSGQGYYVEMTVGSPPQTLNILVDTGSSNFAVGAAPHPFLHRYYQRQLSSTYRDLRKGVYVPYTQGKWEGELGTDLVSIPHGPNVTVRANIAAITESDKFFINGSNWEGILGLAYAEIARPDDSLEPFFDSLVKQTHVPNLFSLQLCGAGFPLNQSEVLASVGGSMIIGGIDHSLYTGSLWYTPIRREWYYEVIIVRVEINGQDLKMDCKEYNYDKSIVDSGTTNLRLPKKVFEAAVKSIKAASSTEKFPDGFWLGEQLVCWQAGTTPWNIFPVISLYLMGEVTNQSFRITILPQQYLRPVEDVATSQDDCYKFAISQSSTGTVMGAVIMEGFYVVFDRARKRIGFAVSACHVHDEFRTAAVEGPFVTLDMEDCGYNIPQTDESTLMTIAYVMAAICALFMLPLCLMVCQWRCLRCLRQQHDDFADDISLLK

For `Oc1ccccc1/C=C/c1cc(O)c(F)c(O)c1` [C], in [1], the “fold more active and selective against BChE than against AChE” value was 94 fold.
As to `NC(=O)c1cc(/C=C/c2ccc(F)cc2)ccc1N` [Compound 2b, (E)-2-Amino-5-(4-fluorostyryl)benzamide], the IC50 was 5.4 ± 0.12 µM in [2]; 19.7 ± 0.25 µM in [3]; 15.8 ± 0.3 µM in [4]; 13.9 ± 0.25 µM in data set [5]; 12.9 ± 0.22 µM in [6].
Consider `Cc1ccc(S(=O)(=O)Nc2ccc(/C=C/c3ccc(F)cc3)cc2C(N)=O)cc1` [Compound 3b, (E)-5-(4-Fluorostyryl)-2-[[(4-methylphenyl)sulfonyl]amino]benzamide], for which the IC50 at 24 h amounted to 191.4 ± 0.6 µM in [7] (monkey, Vero cells (normal monkey kidney cells)) and 55 ± 0.11 µM in [10] (A549 cells (adeno-carcinomic human epithelial cells)). The “suppression of LPS-induced ROS” value in data set [8] is listed as about 40%. Also, the IC50 in [2] is 4.3 ± 0.48 µM; in data set [3], 8.1 ± 0.52 µM; in data set [5] it was 10.1 ± 0.18 µM; in data set [6], 25.6 ± 0.3 µM. In [9], the “ROS reduction (in words)” value is given as “significant ROS reduction”.
As to `Cc1ccc(S(=O)(=O)Nc2ccc(/C=C/c3ccc(Cl)cc3)cc2C(N)=O)cc1` [Compound 3c, (E)-5-(4-Chlorostyryl)-2-[[(4-methylphenyl)sulfonyl]amino]benzamide], the IC50 was 7.8 ± 0.21 µM in data set [2]; 6.9 ± 0.1 µM in data set [3]; 8.6 ± 0.3 µM in data set [4]; 15 ± 0.16 µM in data set [5]; 22.4 ± 0.51 µM in [6].
As to `COc1cccc2c1C(=O)c1c(O)c3c(c(O)c1C2=O)C[C@@](O)(C(=O)CO)C[C@@H]3O[C@H]1C[C@H](N)[C@H](O)[C@H](C)O1` [Doxorubicin, reference compound], the values for the IC50 at 24 h in data set [7] and in data set [10] were 0.66 ± 0.12 µM and 1.14 ± 0.23 µM, respectively.
Take `Cc1ccc(S(=O)(=O)Nc2ccc(/C=C/c3ccccc3)cc2C(N)=O)cc1` [Compound 3a, (E)-5-Styryl-2-[[(4-methylphenyl)sulfonyl]amino]benzamide]: the 50% inhibitory concentration (IC50) came out at 9.5 ± 0.53 µM in data set [2]; 10.8 ± 0.4 µM in data set [3]; 13.1 ± 0.43 µM in [4]; 16.5 ± 0.31 µM in data set [5]; 19.4 ± 0.4 µM in [6].
As to `COc1ccc(/C=C/c2ccc(NS(=O)(=O)c3ccc(C)cc3)c(C(N)=O)c2)cc1` [Compound 3d, (E)-5-(4-Methoxystyryl)-2-[[(4-methylphenyl)sulfonyl]amino]benzamide], the IC50 in [2] was 11.3 ± 0.23 µM; in data set [3], 13.3 ± 0.26 µM; in data set [4] it was 12.3 ± 0.31 µM; in data set [5], 19.3 ± 0.24 µM; in data set [6] it was 9.1 ± 0.26 µM.
Consider `COc1ccc(/C=C/c2ccc(N)c(C(N)=O)c2)cc1` [Compound 2d, (E)-2-Amino-5-(4-methoxystyryl)benzamide], for which the concentration for half-maximal inhibition (IC50) in data set [2] came out at 7.8 ± 0.3 µM; in data set [3], 14.6 ± 0.47 µM; in [4] it was 11.2 ± 0.22 µM; in data set [5], 17.2 ± 0.31 µM; in [6] it was 20.8 ± 0.24 µM.
For the compound `O=C1O[C@H]([C@@H](O)CO)C(O)=C1O` [Ascorbic acid, reference compound], the IC50 in data set [4] was found to be 6.23 ± 0.13 µM; in data set [4] (listed as ascorbic acid), 6.2 µM; in data set [6] (listed as ascorbic acid), 4.2 µM; in data set [6], 4.18 ± 0.13 µM.
With `NC(=O)c1cc(/C=C/c2ccc(Cl)cc2)ccc1N` [Compound 2c, (E)-2-Amino-5-(4-chlorostyryl)benzamide], the half-maximal inhibitory concentration (IC50) is 8.6 ± 0.42 µM in data set [2]; 18.9 ± 0.24 µM in data set [3]; 9.3 ± 0.13 µM in data set [4]; 6.7 ± 0.18 µM in data set [5]; 11.3 ± 0.11 µM in data set [6].

(Values after PMC8145986, “In Vitro Enzymatic and Kinetic Studies, and In Silico Drug-Receptor Interactions, and Drug-Like Profiling of the 5-Styrylbenzamide Derivatives as Potential Cholinesterase and β-Secretase Inhibitors with Antioxidant Properties” (Antioxidants, 2021).)
